Data published in PubChem BioAssay AID1963870 (Molecular Pharmacology Branch, DTP, NCI, 2024).

System: 292921-168-R-J2-PDC KRAS tumor spheroid viability
Test: Anticancer human tumor 292921-168-R-J2-PDC patient-derived pancreatic carcinoma cell line growth inhibition [KRAS2]
Conditions: spheroids with HUVEC and MSC; for IC50: curve of first compound; for viability, T/C: stronger effect = lower value
Summary of the method: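 KRAS-mutant tumor cells were grown as spheroids with HUVEC endothelial cells and human MSCs as stroma. Targeted agents were tested alone and with KRAS pathway inhibitors. Doses started at or near clinical Cmax, or 10 microM, descending half-log.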

[1] = second compound 0.1 µM, first compound 0.0316 µM
[2] = second compound 0.1 µM, first compound 0.1 µM
[3] = second compound 0.1 µM, first compound 0.316 µM
[4] = second compound 0.1 µM, first compound 1 µM
[5] = second compound 0.1 µM, first compound 3.16 µM
[6] = second compound 0.1 µM, first compound 10 µM
[7] = second compound 0.316 µM, first compound 0.0316 µM
[8] = second compound 0.316 µM, first compound 0.1 µM
[9] = second compound 0.316 µM, first compound 0.316 µM
[10] = second compound 0.316 µM, first compound 1 µM
[11] = second compound 0.316 µM, first compound 3.16 µM
[12] = second compound 0.316 µM, first compound 10 µM
[13] = second compound 1 µM, first compound 0.0316 µM
[14] = second compound 1 µM, first compound 0.1 µM
[15] = second compound 1 µM, first compound 0.316 µM
[16] = second compound 1 µM, first compound 1 µM
[17] = second compound 1 µM, first compound 3.16 µM
[18] = second compound 1 µM, first compound 10 µM
[19] = second compound 3.16 µM, first compound 0.0316 µM
[20] = second compound 3.16 µM, first compound 0.1 µM
[21] = second compound 3.16 µM, first compound 0.316 µM
[22] = second compound 3.16 µM, first compound 1 µM
[23] = second compound 3.16 µM, first compound 3.16 µM
[24] = second compound 3.16 µM, first compound 10 µM
[25] = second compound 10 µM, first compound 0.0316 µM
[26] = second compound 10 µM, first compound 0.1 µM
[27] = second compound 10 µM, first compound 0.316 µM
[28] = second compound 10 µM, first compound 1 µM
[29] = second compound 10 µM, first compound 3.16 µM
[30] = second compound 10 µM, first compound 10 µM
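Also: drug exposure lasted seven days after spheroids formed for three days.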
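For viability, T/C in this document: percent of DMSO vehicle control viability which is 100%.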

Row | Compound | IC50 (second compound 0.1 µM) [nM] | IC50 (second compound 0.316 µM) [nM] | IC50 (second compound 1 µM) [nM] | IC50 (second compound 3.16 µM) [nM] | IC50 (second compound 10 µM) [nM] | viability, T/C [1] [%] | viability, T/C [2] [%] | viability, T/C [3] [%] | viability, T/C [4] [%] | viability, T/C [5] [%] | viability, T/C [7] [%] | viability, T/C [8] [%] | viability, T/C [9] [%] | viability, T/C [10] [%] | viability, T/C [11] [%] | viability, T/C [13] [%] | viability, T/C [14] [%] | viability, T/C [15] [%] | viability, T/C [16] [%] | viability, T/C [17] [%] | further results
1 | CC(C)NCC(C(=O)N1CCN(c2ncnc3c2C(C)CC3O)CC1)c1ccc(Cl)cc1 (stereo not given) + COc1cc2nc(C)nc(NC(C)c3cc(N)cc(C(F)(F)F)c3)c2cc1OC1CCOC1 | 8850 | 8100 | 5010 | 1250 | < 31.6 | 87.5 | 84.8 | 78.8 | 77.8 | 77.4 | 82.7 | 82 | 80.5 | 75.3 | 74.4 | 83.2 | 71.1 | 63.8 | 63.2 | 60.9 | viability, T/C [6]: 46.3%; viability, T/C [12]: 44.7%; viability, T/C [18]: 40.2%; viability, T/C [19]: 58.1%; viability, T/C [20]: 51.1%; viability, T/C [21]: 50.2%; viability, T/C [22]: 50.4%; viability, T/C [23]: 46.9%; viability, T/C [24]: 30.6%; viability, T/C [25]: 20.3%; viability, T/C [26]: 19.7%; viability, T/C [27]: 18.6%; viability, T/C [28]: 18%; viability, T/C [29]: 15.4%; viability, T/C [30]: 9.75%
2 | O=C(c1cc(Cc2n[nH]c(=O)c3ccccc23)ccc1F)N1CCN(C(=O)C2CC2)CC1 + C=CC(=O)N1CCN(c2nc(=O)n(-c3c(C)ccnc3C(C)C)c3nc(-c4c(O)cccc4F)c(F)cc23)C(C)C1 | 7630 | 8380 | 6670 | 1020 | < 31.6 | 97.8 | 87 | 88 | 84.1 | 76.8 | 90.8 | 82.1 | 79.4 | 85.9 | 75.7 | 77 | 72.3 | 76.2 | 84.2 | 62.1 | viability, T/C [6]: 41.9%; viability, T/C [12]: 45.1%; viability, T/C [18]: 41%; viability, T/C [19]: 64%; viability, T/C [20]: 59.5%; viability, T/C [21]: 56.7%; viability, T/C [22]: 47.5%; viability, T/C [23]: 46.7%; viability, T/C [24]: 38.2%; viability, T/C [25]: 27.3%; viability, T/C [26]: 25.9%; viability, T/C [27]: 28.2%; viability, T/C [28]: 28.9%; viability, T/C [29]: 32%; viability, T/C [30]: 29.1%
3 | CC1COCCN1c1cc(-c2ccnn2C)c2ccnc(-c3ccn[nH]3)c2n1 (stereo not given) + C=CC(=O)N1CCN(c2nc(=O)n(-c3c(C)ccnc3C(C)C)c3nc(-c4c(O)cccc4F)c(F)cc23)C(C)C1 | < 10 | < 10 | < 10 | < 10 | < 10 | 19.9 | 15 | 13.6 | 16.1 | 18.3 | 20.1 | 13.5 | 14.6 | 17.5 | 20 | 16.8 | 12.9 | 15.5 | 18.7 | 23.2 | viability, T/C (second compound 0.1 µM, first compound 0.01 µM): 41.9%; viability, T/C (second compound 0.316 µM, first compound 0.01 µM): 32.8%; viability, T/C (second compound 1 µM, first compound 0.01 µM): 30.3%; viability, T/C (second compound 3.16 µM, first compound 0.01 µM): 17.1%; viability, T/C [19]: 12%; viability, T/C [20]: 12.4%; viability, T/C [21]: 16.8%; viability, T/C [22]: 21.8%; viability, T/C [23]: 24.1%; viability, T/C (second compound 10 µM, first compound 0.01 µM): 12.1%; viability, T/C [25]: 12.7%; viability, T/C [26]: 14.7%; viability, T/C [27]: 19.1%; viability, T/C [28]: 21.3%; viability, T/C [29]: 24.8%
4 | COC(=O)c1ccc2c(C(=Nc3ccc(N(C)C(=O)CN4CCN(C)CC4)cc3)c3ccccc3)c(O)[nH]c2c1 + C=CC(=O)N1CCN(c2nc(=O)n(-c3c(C)ccnc3C(C)C)c3nc(-c4c(O)cccc4F)c(F)cc23)C(C)C1 | < 31.6 | < 31.6 | 58.8 | 41.8 | < 31.6 | 44.2 | 39.2 | 30.9 | 18.8 | 11.9 | 48.4 | 40.6 | 25.3 | 20.1 | 5.83 | 56.8 | 43.7 | 29.2 | 15.8 | 2.31 | viability, T/C [6]: 0.29%; viability, T/C [12]: 0.17%; viability, T/C [18]: 0.19%; viability, T/C [19]: 52.8%; viability, T/C [20]: 41.5%; viability, T/C [21]: 25.7%; viability, T/C [22]: 16.9%; viability, T/C [23]: 2.53%; viability, T/C [24]: 0.13%; viability, T/C [25]: 38.1%; viability, T/C [26]: 36.4%; viability, T/C [27]: 24.8%; viability, T/C [28]: 19.2%; viability, T/C [29]: 3.45%; viability, T/C [30]: 0.21%
